For experiment [1], the target named is Mitogen-activated protein kinase kinase kinase 9 (Homo sapiens) (UniProt P80192). As to the kind of experiment: Selectivity interaction (Kinase panel (KiNativ target engagement assay in Jurkat cells)) EUB0001635a MAP3K9. The experiment is classed as cell-based. To be noted: Selectivity number of off-targets 0.0, Selectivity number of targets 233.0, Source Knowledge https://www.sciencedirect.com/science/article/pii/S2451945619300674?via%3Dihub, at 1 µM.

In experiment [2] the target is Tyrosine-protein kinase ABL1 (Homo sapiens, UniProt P00519). To be noted: at 10 µM.
Experiment [3] deals with T1, Mitogen-activated protein kinase kinase kinase 19 (Homo sapiens) (UniProt Q56UN5).
T1 sequence (whole entry): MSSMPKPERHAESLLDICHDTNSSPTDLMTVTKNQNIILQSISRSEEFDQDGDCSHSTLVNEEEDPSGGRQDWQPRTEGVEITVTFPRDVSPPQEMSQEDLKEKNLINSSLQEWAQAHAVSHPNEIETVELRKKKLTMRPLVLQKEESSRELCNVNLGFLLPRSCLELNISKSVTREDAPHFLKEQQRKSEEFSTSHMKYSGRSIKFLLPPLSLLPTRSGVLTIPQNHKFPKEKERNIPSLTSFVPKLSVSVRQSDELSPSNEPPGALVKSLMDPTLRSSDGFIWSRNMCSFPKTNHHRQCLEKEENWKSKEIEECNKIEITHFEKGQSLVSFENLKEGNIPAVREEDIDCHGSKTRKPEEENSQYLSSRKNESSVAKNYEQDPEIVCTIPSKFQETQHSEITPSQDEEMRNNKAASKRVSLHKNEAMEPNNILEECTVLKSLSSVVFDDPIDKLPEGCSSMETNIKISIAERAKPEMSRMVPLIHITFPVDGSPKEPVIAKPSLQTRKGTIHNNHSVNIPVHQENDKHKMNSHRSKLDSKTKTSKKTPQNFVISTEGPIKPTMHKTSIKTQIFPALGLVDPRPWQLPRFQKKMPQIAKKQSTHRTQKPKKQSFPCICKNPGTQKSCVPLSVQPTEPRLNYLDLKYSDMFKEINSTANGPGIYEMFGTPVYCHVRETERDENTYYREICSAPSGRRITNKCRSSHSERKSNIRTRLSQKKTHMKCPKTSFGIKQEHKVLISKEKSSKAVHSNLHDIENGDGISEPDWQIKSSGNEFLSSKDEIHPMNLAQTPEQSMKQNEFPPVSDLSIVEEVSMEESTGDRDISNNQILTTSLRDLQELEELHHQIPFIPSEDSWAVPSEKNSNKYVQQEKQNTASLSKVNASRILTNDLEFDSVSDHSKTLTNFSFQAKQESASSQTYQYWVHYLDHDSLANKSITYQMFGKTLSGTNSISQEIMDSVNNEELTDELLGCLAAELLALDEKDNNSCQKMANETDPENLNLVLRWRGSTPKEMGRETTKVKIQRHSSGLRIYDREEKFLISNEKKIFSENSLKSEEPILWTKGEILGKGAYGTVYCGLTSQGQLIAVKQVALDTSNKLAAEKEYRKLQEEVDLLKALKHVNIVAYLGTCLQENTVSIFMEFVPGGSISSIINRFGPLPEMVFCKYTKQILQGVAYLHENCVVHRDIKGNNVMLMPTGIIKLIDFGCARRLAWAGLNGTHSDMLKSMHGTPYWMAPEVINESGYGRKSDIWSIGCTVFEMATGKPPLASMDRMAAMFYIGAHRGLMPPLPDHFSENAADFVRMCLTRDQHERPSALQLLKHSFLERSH
The settings on record: at 10 µM.

Experiment [4] has as its target NT-3 growth factor receptor (Homo sapiens, UniProt Q16288). Description: Selectivity interaction (Kinase panel (Invitrogen)) EUB0000639a NTRK3. The settings on record: at 200 nM.
In experiment [5] the target is T2, cAMP-dependent protein kinase catalytic subunit PRKX (Homo sapiens) (UniProt P51817).
T2 sequence (whole entry): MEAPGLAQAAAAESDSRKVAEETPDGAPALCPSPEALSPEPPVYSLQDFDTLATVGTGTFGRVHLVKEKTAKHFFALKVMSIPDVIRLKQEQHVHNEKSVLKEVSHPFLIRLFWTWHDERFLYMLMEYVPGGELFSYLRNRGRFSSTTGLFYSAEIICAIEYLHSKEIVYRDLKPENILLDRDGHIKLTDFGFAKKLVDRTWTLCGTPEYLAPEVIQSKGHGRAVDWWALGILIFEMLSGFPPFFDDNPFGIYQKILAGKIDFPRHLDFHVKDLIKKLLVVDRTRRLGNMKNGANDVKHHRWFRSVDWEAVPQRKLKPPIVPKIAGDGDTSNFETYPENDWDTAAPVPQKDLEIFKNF
The settings on record: at 10 µM.

In experiment [6] the target is T3, Ankyrin repeat and protein kinase domain-containing protein 1 (Homo sapiens) (UniProt Q8NFD2).
T3 sequence (whole entry): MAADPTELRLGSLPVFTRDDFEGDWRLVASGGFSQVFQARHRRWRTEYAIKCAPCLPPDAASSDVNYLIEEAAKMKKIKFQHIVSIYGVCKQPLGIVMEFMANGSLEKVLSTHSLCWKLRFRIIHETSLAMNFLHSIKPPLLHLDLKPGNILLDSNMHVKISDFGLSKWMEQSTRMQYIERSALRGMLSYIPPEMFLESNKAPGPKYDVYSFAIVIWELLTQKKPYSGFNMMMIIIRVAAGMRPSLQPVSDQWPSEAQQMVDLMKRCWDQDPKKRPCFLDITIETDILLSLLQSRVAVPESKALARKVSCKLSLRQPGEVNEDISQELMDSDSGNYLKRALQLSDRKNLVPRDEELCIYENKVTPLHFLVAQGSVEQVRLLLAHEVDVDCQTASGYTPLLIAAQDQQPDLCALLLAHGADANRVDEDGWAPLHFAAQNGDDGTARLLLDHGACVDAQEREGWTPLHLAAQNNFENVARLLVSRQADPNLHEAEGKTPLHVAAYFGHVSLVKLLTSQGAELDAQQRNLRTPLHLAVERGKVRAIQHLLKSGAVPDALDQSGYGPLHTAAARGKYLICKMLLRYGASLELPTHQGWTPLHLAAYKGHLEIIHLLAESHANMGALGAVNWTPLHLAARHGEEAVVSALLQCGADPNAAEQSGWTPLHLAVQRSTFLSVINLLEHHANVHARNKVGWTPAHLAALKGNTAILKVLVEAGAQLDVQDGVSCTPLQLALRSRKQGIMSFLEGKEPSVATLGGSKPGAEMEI
As to the kind of experiment: Selectivity interaction (KinomeScan (DiscoverX)) EUB0001049a ANKK1. To be noted: at 1 µM.

In experiment [7] the target is Mitogen-activated protein kinase kinase kinase 4 (Homo sapiens) (UniProt Q9Y6R4). As to the kind of experiment: Selectivity interaction (KinomeScan (DiscoverX)) EUB0001049a MAP3K4. The settings on record: at 1 µM.
Chain of Mitogen-activated protein kinase kinase kinase 4 (Homo sapiens) (Q9Y6R4 whole entry): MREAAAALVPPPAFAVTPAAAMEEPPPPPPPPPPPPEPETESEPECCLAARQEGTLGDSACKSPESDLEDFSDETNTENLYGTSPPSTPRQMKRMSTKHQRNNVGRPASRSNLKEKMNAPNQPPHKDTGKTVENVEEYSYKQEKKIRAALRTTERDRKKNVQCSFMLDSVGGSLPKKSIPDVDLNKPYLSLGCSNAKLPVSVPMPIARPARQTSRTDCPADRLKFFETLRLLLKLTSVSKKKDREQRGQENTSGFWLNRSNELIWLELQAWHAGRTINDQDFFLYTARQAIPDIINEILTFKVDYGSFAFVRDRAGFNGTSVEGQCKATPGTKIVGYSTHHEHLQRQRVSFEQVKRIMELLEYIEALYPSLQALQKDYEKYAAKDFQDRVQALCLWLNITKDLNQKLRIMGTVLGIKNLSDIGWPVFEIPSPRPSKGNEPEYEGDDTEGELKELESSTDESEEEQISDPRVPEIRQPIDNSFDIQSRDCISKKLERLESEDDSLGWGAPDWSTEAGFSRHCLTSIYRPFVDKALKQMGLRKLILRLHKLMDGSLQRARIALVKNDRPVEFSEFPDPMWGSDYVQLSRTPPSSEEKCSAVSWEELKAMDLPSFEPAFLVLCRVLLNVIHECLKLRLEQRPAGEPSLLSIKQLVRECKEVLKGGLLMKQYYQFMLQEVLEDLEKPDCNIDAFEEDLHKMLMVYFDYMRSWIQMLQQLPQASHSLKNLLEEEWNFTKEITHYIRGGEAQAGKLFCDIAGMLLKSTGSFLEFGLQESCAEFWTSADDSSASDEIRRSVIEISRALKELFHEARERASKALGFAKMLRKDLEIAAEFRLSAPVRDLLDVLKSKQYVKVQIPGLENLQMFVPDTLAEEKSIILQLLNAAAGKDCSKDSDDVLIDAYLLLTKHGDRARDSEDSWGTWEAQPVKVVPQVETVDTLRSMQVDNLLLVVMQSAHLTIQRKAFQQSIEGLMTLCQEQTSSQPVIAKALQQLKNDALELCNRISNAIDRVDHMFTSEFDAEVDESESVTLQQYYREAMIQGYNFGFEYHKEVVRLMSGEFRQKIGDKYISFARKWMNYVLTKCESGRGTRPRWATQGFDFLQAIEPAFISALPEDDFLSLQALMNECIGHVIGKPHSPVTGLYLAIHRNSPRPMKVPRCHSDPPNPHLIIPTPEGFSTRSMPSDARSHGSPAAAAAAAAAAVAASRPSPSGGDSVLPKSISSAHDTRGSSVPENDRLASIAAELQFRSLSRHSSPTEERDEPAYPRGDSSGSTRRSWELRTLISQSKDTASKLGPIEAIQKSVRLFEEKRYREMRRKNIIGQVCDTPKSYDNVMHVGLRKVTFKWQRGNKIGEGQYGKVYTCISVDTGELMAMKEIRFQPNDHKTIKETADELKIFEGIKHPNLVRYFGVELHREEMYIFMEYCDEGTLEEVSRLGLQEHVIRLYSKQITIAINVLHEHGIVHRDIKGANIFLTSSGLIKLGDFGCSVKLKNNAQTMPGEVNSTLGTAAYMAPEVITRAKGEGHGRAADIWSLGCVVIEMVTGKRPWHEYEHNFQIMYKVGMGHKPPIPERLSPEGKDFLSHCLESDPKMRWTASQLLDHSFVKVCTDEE

Chain of Mitogen-activated protein kinase kinase kinase 9 (Homo sapiens) (P80192 whole entry, looked up): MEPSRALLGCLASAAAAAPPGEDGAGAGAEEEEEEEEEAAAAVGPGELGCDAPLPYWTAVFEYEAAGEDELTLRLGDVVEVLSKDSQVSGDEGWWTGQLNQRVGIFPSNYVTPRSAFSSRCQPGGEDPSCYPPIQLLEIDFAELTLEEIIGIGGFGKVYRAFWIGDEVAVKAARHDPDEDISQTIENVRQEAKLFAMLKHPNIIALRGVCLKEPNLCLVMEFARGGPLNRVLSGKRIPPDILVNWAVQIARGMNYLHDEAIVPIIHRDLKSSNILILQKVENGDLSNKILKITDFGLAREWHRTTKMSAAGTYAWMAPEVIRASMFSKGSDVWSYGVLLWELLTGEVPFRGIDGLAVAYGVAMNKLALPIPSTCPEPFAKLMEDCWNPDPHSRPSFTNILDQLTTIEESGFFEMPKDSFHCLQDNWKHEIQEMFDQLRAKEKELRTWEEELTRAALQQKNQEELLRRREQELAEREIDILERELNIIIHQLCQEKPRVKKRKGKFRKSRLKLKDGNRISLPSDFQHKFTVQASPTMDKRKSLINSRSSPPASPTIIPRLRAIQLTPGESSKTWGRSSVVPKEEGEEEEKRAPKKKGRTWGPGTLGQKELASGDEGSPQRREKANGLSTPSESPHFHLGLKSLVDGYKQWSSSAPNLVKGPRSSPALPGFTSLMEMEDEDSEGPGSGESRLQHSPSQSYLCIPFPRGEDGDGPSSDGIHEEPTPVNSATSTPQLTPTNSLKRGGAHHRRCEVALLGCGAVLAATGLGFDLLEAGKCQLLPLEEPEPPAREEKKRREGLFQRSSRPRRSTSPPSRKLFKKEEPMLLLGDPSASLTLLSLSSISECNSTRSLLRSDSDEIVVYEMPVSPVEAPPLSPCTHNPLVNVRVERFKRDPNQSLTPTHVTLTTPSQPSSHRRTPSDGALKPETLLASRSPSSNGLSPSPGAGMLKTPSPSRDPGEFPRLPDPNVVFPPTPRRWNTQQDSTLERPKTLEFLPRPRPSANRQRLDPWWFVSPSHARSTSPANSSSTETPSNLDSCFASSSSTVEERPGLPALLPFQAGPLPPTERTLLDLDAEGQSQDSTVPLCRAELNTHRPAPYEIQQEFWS
Chain of NT-3 growth factor receptor (Q16288 32-839 limits assumed): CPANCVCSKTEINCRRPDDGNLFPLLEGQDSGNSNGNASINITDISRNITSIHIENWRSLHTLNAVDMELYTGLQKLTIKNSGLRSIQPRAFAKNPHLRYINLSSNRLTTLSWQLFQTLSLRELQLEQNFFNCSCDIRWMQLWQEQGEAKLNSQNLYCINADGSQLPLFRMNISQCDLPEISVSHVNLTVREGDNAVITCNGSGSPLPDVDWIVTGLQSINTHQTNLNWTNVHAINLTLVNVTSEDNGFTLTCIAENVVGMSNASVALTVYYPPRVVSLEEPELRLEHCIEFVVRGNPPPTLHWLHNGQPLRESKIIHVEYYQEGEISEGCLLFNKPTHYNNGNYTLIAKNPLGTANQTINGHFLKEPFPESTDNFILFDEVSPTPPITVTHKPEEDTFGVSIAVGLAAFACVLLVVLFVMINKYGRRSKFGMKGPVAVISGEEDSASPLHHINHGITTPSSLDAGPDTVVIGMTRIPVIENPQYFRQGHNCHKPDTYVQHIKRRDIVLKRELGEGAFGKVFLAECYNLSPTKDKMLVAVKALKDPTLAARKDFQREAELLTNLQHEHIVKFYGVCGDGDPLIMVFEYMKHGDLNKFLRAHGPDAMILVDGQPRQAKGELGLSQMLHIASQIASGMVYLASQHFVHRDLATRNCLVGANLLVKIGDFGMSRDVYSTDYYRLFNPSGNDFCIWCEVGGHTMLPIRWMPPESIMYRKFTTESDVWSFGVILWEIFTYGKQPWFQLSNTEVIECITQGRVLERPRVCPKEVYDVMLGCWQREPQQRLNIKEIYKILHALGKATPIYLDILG
Chain of Tyrosine-protein kinase ABL1 (P00519 whole entry): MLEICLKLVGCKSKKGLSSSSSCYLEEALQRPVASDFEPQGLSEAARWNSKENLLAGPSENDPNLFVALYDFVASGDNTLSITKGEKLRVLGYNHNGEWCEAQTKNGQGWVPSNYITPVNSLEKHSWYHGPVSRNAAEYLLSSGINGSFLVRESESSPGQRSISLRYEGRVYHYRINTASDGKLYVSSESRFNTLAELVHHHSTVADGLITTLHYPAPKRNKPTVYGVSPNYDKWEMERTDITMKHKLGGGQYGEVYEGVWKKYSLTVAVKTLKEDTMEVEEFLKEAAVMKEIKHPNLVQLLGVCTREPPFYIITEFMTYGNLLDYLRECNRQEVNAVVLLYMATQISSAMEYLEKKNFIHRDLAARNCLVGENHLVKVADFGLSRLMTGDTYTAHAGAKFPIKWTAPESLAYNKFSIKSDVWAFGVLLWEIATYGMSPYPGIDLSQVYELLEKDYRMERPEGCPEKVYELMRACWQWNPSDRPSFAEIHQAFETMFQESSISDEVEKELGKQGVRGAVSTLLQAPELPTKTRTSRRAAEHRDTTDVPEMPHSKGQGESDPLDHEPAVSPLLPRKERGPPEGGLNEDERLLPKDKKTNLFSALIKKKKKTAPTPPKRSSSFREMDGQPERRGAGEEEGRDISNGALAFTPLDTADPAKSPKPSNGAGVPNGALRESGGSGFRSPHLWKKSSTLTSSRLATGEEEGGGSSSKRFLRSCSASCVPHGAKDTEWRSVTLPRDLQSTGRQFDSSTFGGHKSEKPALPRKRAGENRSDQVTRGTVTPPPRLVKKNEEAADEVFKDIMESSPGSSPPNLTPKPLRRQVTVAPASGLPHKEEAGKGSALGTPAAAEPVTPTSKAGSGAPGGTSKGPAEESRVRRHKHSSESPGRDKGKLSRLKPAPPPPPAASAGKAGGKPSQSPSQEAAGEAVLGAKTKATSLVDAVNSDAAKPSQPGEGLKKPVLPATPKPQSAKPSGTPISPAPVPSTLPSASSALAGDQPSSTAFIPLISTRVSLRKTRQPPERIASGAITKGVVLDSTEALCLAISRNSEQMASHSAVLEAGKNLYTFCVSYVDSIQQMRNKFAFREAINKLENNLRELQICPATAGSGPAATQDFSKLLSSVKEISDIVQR

Take `C=CC(=O)Nc1ccc(C(=O)Nc2[nH]nc3c2CN(C(=O)N[C@H](CN(C)C)c2ccccc2)C3(C)C)cc1`: in experiment [1], the % of engagement is 0.3%.
In the case of `Cc1cc([C@@H](C)Nc2ccccc2C(=O)O)c2nc(N3CCOCC3)cc(=O)n2c1` [AZD-6482], the results for the % of control in experiment [2] and in experiment [3] were 88% and 100%, respectively.
For `CC[C@@H]1[C@H](F)C(=O)N[C@@H]1COc1nccc2cc(C(N)=O)c(OC)cc12` [ZIMLOVISERTIB], the % of inhibition in experiment [4] was 21.9%.
In experiment [5], `CCN(CC)CCCCNc1ncc2cc(-c3cc(OC)cc(OC)c3)c(NC(=O)NC(C)(C)C)nc2n1` displayed a % of control of 100%.
In the case of `COc1cc(Nc2nc(C)cc(-c3cnn4nc(OC)ccc34)n2)cc(C(F)(F)F)c1`, the % of control was 70% in experiment [6] and 87% in experiment [7].

(Values after ChEMBL document CHEMBL5465560, “Selectivity Literature for EUbOPEN Chemogenomic Library” (2024).)
